Results as given in PubChem BioAssay AID1963970 (Molecular Pharmacology Branch, DTP, NCI, 2024).

Tested on: 931267-113-T-J1-PDC multicell spheroid viability
Experiment: Anticancer human tumor 931267-113-T-J1-PDC patient-derived colon adenocarcinoma cell line growth inhibition [PI3K]
Conditions: for IC50: curve of first compound; for viability, T/C: stronger effect = lower value
Summary of the method: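 Stroma-containing spheroids: tumor line, pooled-donor HUVEC, hMSC. Treatments: targeted agents with PI3K inhibitors. Dosing: clinically relevant, half-log spacing, 10 microM ceiling without known Cmax. Read-out: cell viability.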
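Note: viability read 7 days after compound addition.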

CNC(=O)c1ccc(N2C(=S)N(c3ccc(C#N)c(C(F)(F)F)c3)C(=O)C2(C)C)cc1F + COc1c(OCCCN2CCOCC2)ccc2c3n(c(=NC(=O)c4cnc(N)nc4)nc12)CCN3
IC50 (second compound 0.00316 µM): > 10000 nM
IC50 (second compound 0.01 µM): > 10000 nM
IC50 (second compound 0.0316 µM): > 10000 nM
IC50 (second compound 0.1 µM): > 10000 nM
IC50 (second compound 0.316 µM): 1560 nM
IC50 (second compound 1 µM): < 31.6 nM
viability, T/C (second compound 0.00316 µM, first compound 0.0316 µM): 109%
viability, T/C (second compound 0.00316 µM, first compound 0.1 µM): 107%
viability, T/C (second compound 0.00316 µM, first compound 0.316 µM): 99.3%
viability, T/C (second compound 0.00316 µM, first compound 1 µM): 101%
viability, T/C (second compound 0.00316 µM, first compound 3.16 µM): 104%
viability, T/C (second compound 0.00316 µM, first compound 10 µM): 104%
viability, T/C (second compound 0.01 µM, first compound 0.0316 µM): 105%
viability, T/C (second compound 0.01 µM, first compound 0.1 µM): 93.5%
viability, T/C (second compound 0.01 µM, first compound 0.316 µM): 102%
viability, T/C (second compound 0.01 µM, first compound 1 µM): 92%
viability, T/C (second compound 0.01 µM, first compound 3.16 µM): 100%
viability, T/C (second compound 0.01 µM, first compound 10 µM): 94.2%
viability, T/C (second compound 0.0316 µM, first compound 0.0316 µM): 85.2%
viability, T/C (second compound 0.0316 µM, first compound 0.1 µM): 80.7%
viability, T/C (second compound 0.0316 µM, first compound 0.316 µM): 85.7%
viability, T/C (second compound 0.0316 µM, first compound 1 µM): 86.8%
viability, T/C (second compound 0.0316 µM, first compound 3.16 µM): 93.2%
viability, T/C (second compound 0.0316 µM, first compound 10 µM): 74.4%
viability, T/C (second compound 0.1 µM, first compound 0.0316 µM): 70.8%
viability, T/C (second compound 0.1 µM, first compound 0.1 µM): 68.5%
viability, T/C (second compound 0.1 µM, first compound 0.316 µM): 75.7%
viability, T/C (second compound 0.1 µM, first compound 1 µM): 68.5%
viability, T/C (second compound 0.1 µM, first compound 3.16 µM): 69.1%
viability, T/C (second compound 0.1 µM, first compound 10 µM): 57.8%
viability, T/C (second compound 0.316 µM, first compound 0.0316 µM): 51%
viability, T/C (second compound 0.316 µM, first compound 0.1 µM): 55.9%
viability, T/C (second compound 0.316 µM, first compound 0.316 µM): 53.9%
viability, T/C (second compound 0.316 µM, first compound 1 µM): 52%
viability, T/C (second compound 0.316 µM, first compound 3.16 µM): 46.4%
viability, T/C (second compound 0.316 µM, first compound 10 µM): 40.8%
viability, T/C (second compound 1 µM, first compound 0.0316 µM): 36.4%
viability, T/C (second compound 1 µM, first compound 0.1 µM): 38.4%
viability, T/C (second compound 1 µM, first compound 0.316 µM): 39.3%
viability, T/C (second compound 1 µM, first compound 1 µM): 34.2%
viability, T/C (second compound 1 µM, first compound 3.16 µM): 36.1%
viability, T/C (second compound 1 µM, first compound 10 µM): 30.1%

Cn1cnc2c(F)c(Nc3ccc(Br)cc3Cl)c(C(=O)NOCCO)cc21 + COc1c(OCCCN2CCOCC2)ccc2c3n(c(=NC(=O)c4cnc(N)nc4)nc12)CCN3
IC50 (second compound 0.00316 µM): 103 nM
IC50 (second compound 0.01 µM): 81 nM
IC50 (second compound 0.0316 µM): 42.2 nM
IC50 (second compound 0.1 µM): 14 nM
IC50 (second compound 0.316 µM): < 9.49 nM
IC50 (second compound 1 µM): < 9.49 nM
viability, T/C (second compound 0.00316 µM, first compound 0.00949 µM): 83.7%
viability, T/C (second compound 0.00316 µM, first compound 0.03 µM): 71%
viability, T/C (second compound 0.00316 µM, first compound 0.0949 µM): 51.1%
viability, T/C (second compound 0.00316 µM, first compound 0.3 µM): 31.4%
viability, T/C (second compound 0.00316 µM, first compound 0.949 µM): 18.3%
viability, T/C (second compound 0.00316 µM, first compound 3 µM): 9.54%
viability, T/C (second compound 0.01 µM, first compound 0.00949 µM): 88.6%
viability, T/C (second compound 0.01 µM, first compound 0.03 µM): 73.1%
viability, T/C (second compound 0.01 µM, first compound 0.0949 µM): 45%
viability, T/C (second compound 0.01 µM, first compound 0.3 µM): 25.6%
viability, T/C (second compound 0.01 µM, first compound 0.949 µM): 15.3%
viability, T/C (second compound 0.01 µM, first compound 3 µM): 8.03%
viability, T/C (second compound 0.0316 µM, first compound 0.00949 µM): 76.4%
viability, T/C (second compound 0.0316 µM, first compound 0.03 µM): 57%
viability, T/C (second compound 0.0316 µM, first compound 0.0949 µM): 33.7%
viability, T/C (second compound 0.0316 µM, first compound 0.3 µM): 17.5%
viability, T/C (second compound 0.0316 µM, first compound 0.949 µM): 10.3%
viability, T/C (second compound 0.0316 µM, first compound 3 µM): 5.43%
viability, T/C (second compound 0.1 µM, first compound 0.00949 µM): 56.4%
viability, T/C (second compound 0.1 µM, first compound 0.03 µM): 37.7%
viability, T/C (second compound 0.1 µM, first compound 0.0949 µM): 19.6%
viability, T/C (second compound 0.1 µM, first compound 0.3 µM): 11.9%
viability, T/C (second compound 0.1 µM, first compound 0.949 µM): 7.31%
viability, T/C (second compound 0.1 µM, first compound 3 µM): 4.08%
viability, T/C (second compound 0.316 µM, first compound 0.00949 µM): 39.2%
viability, T/C (second compound 0.316 µM, first compound 0.03 µM): 25.2%
viability, T/C (second compound 0.316 µM, first compound 0.0949 µM): 14.3%
viability, T/C (second compound 0.316 µM, first compound 0.3 µM): 8.7%
viability, T/C (second compound 0.316 µM, first compound 0.949 µM): 5.28%
viability, T/C (second compound 0.316 µM, first compound 3 µM): 2.51%
viability, T/C (second compound 1 µM, first compound 0.00949 µM): 26.2%
viability, T/C (second compound 1 µM, first compound 0.03 µM): 17.8%
viability, T/C (second compound 1 µM, first compound 0.0949 µM): 9.52%
viability, T/C (second compound 1 µM, first compound 0.3 µM): 4.72%
viability, T/C (second compound 1 µM, first compound 0.949 µM): 2.93%
viability, T/C (second compound 1 µM, first compound 3 µM): 1.42%
